Laboratory results as given in patent US20230085307A1, “PYRIDAZINONE COMPOUND AND HERBICIDE” (NISSAN CHEMICAL CORPORATION, priority 2019, published 2023).

How the values were obtained:
redroot pigweed [1] = experiment: Test Example 5: herbicidal effect by foliage application, plastic box (Table 20, symbol N); format: in vivo, redroot pigweed (Amaranthus retroflexus); conditions: foliage application, 320 g/ha, evaluated three weeks after application
Method in brief: (§1)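 Foliar spray test: emulsion formulation diluted in water to a set application rate, sprayed onto 14-day-old plants raised in diluvial soil at 25° C to 30° C under glass. Both herbicidal effect and crop effect rated visually three weeks later.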

barnyard grass [2] = experiment: Test Example 5: herbicidal effect by foliage application, plastic box (Table 20, symbol H); format: in vivo, barnyard grass (Echinochloa crus-galli); conditions: foliage application, 320 g/ha, evaluated three weeks after application
Method in brief: as §1

Italian ryegrass [3] = experiment: Test Example 5: herbicidal effect by foliage application, plastic box (Table 20, symbol K); format: in vivo, Italian ryegrass (Lolium multiflorum); conditions: foliage application, 320 g/ha, evaluated three weeks after application
Method in brief: as §1

windgrass [4] = experiment: Test Example 5: herbicidal effect by foliage application, plastic box (Table 20, symbol L); format: in vivo, windgrass (Apera spica-venti); conditions: foliage application, 320 g/ha, evaluated three weeks after application
Method in brief: as §1

wild oat [5] = experiment: Test Example 5: herbicidal effect by foliage application, plastic box (Table 20, symbol I); format: in vivo, wild oat (Avena fatua); conditions: foliage application, 320 g/ha, evaluated three weeks after application
Method in brief: as §1

blackgrass [6] = experiment: Test Example 4: herbicidal effect by soil treatment (Table 19, symbol J); format: in vivo, blackgrass (Alopecurus myosuroides); conditions: amount of applied herbicide 320 g/ha
Method in brief: (§2)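 Step 1: sow seeds in sterilized diluvial soil, cover ~1.5 cm. Step 2: spray diluted emulsion onto soil surface at predetermined rate. Step 3: greenhouse, 25–30° C, three weeks. Step 4: grade effect on each plant by earlier criteria.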

southern crabgrass [7] = experiment: Test Example 4: herbicidal effect by soil treatment (Table 19, symbol F); format: in vivo, southern crabgrass (Digitaria ciliaris); conditions: amount of applied herbicide 320 g/ha
Method in brief: as §2

redroot pigweed [8] = experiment: Test Example 4: herbicidal effect by soil treatment (Table 19, symbol N); format: in vivo, redroot pigweed (Amaranthus retroflexus); conditions: amount of applied herbicide 320 g/ha
Method in brief: as §2

barnyard grass [9] = experiment: Test Example 4: herbicidal effect by soil treatment (Table 19, symbol H); format: in vivo, barnyard grass (Echinochloa crus-galli); conditions: amount of applied herbicide 320 g/ha
Method in brief: as §2

rice flat sedge = experiment: Test Example 3: herbicidal effect by foliage application, Wagner pot (Table 18, symbol E); format: in vivo, rice flat sedge (Cyperus iria); conditions: amount of applied herbicide 320 g/ha
Method in brief: (§3)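 Plants were sown in alluvial soil held under 0.1–0.5 cm standing water and grown 14 days in a greenhouse at 25–30 °C. An emulsifiable formulation, water-diluted to the set dose, was then sprayed onto the foliage, and effects were scored three weeks later using previously defined criteria.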

green foxtail [10] = experiment: Test Example 4: herbicidal effect by soil treatment (Table 19, symbol G); format: in vivo, green foxtail (Setaria viridis); conditions: amount of applied herbicide 320 g/ha
Method in brief: as §2

barnyard grass [11] = experiment: Test Example 3: herbicidal effect by foliage application, Wagner pot (Table 18, symbol H); format: in vivo, barnyard grass (Echinochloa crus-galli); conditions: amount of applied herbicide 320 g/ha
Method in brief: as §3

Chinese sprangletop = experiment: Test Example 3: herbicidal effect by foliage application, Wagner pot (Table 18, symbol D); format: in vivo, chinese sprangletop (Leptochloa chinensis); conditions: amount of applied herbicide 320 g/ha
Method in brief: as §3

velvetleaf [12] = experiment: Test Example 4: herbicidal effect by soil treatment (Table 19, symbol M); format: in vivo, velvetleaf (Abutilon theophrasti); conditions: amount of applied herbicide 320 g/ha
Method in brief: as §2

blackgrass [13] = experiment: Test Example 5: herbicidal effect by foliage application, plastic box (Table 20, symbol J); format: in vivo, blackgrass (Alopecurus myosuroides); conditions: foliage application, 320 g/ha, evaluated three weeks after application
Method in brief: as §1

persian speedwell [14] = experiment: Test Example 5: herbicidal effect by foliage application, plastic box (Table 20, symbol R); format: in vivo, Persian speedwell (Veronica persica); conditions: foliage application, 320 g/ha, evaluated three weeks after application
Method in brief: as §1

lambsquarters [15] = experiment: Test Example 5: herbicidal effect by foliage application, plastic box (Table 20, symbol O); format: in vivo, lambsquarters (Chenopodium album); conditions: foliage application, 320 g/ha, evaluated three weeks after application
Method in brief: as §1

southern crabgrass [16] = experiment: Test Example 5: herbicidal effect by foliage application, plastic box (Table 20, symbol F); format: in vivo, southern crabgrass (Digitaria ciliaris); conditions: foliage application, 320 g/ha, evaluated three weeks after application
Method in brief: as §1

windgrass [17] = experiment: Test Example 4: herbicidal effect by soil treatment (Table 19, symbol L); format: in vivo, windgrass (Apera spica-venti); conditions: amount of applied herbicide 320 g/ha
Method in brief: as §2

Italian ryegrass [18] = experiment: Test Example 4: herbicidal effect by soil treatment (Table 19, symbol K); format: in vivo, Italian ryegrass (Lolium multiflorum); conditions: amount of applied herbicide 320 g/ha
Method in brief: as §2

persian speedwell [19] = experiment: Test Example 4: herbicidal effect by soil treatment (Table 19, symbol R); format: in vivo, Persian speedwell (Veronica persica); conditions: amount of applied herbicide 320 g/ha
Method in brief: as §2

chickweed [20] = experiment: Test Example 4: herbicidal effect by soil treatment (Table 19, symbol P); format: in vivo, common chickweed (Stellaria media); conditions: amount of applied herbicide 320 g/ha
Method in brief: as §2

wild oat [21] = experiment: Test Example 4: herbicidal effect by soil treatment (Table 19, symbol I); format: in vivo, wild oat (Avena fatua); conditions: amount of applied herbicide 320 g/ha
Method in brief: as §2

chickweed [22] = experiment: Test Example 5: herbicidal effect by foliage application, plastic box (Table 20, symbol P); format: in vivo, common chickweed (Stellaria media); conditions: foliage application, 320 g/ha, evaluated three weeks after application
Method in brief: as §1

lambsquarters [23] = experiment: Test Example 4: herbicidal effect by soil treatment (Table 19, symbol O); format: in vivo, lambsquarters (Chenopodium album); conditions: amount of applied herbicide 320 g/ha
Method in brief: as §2

velvetleaf [24] = experiment: Test Example 5: herbicidal effect by foliage application, plastic box (Table 20, symbol M); format: in vivo, velvetleaf (Abutilon theophrasti); conditions: foliage application, 320 g/ha, evaluated three weeks after application
Method in brief: as §1

green foxtail [25] = experiment: Test Example 5: herbicidal effect by foliage application, plastic box (Table 20, symbol G); format: in vivo, green foxtail (Setaria viridis); conditions: foliage application, 320 g/ha, evaluated three weeks after application
Method in brief: as §1

| Compound | herbicidal effect on N: redroot pigweed (criteria 0-5) (redroot pigweed [1]) | herbicidal effect on H: barnyard grass (criteria 0-5) (barnyard grass [2]) | herbicidal effect on K: Italian ryegrass (criteria 0-5) (Italian ryegrass [3]) | herbicidal effect on L: windgrass (criteria 0-5) (windgrass [4]) | herbicidal effect on I: wild oat (criteria 0-5) (wild oat [5]) | J: blackgrass, herbicidal effect rating (blackgrass [6]) | F: southern crabgrass, herbicidal effect rating (southern crabgrass [7]) | N: redroot pigweed, herbicidal effect rating (redroot pigweed [8]) | H: barnyard grass, herbicidal effect rating (barnyard grass [9]) | herbicidal effect on E: rice flat sedge (rice flat sedge) | G: green foxtail, herbicidal effect rating (green foxtail [10]) | herbicidal effect on H: barnyard grass (barnyard grass [11]) | herbicidal effect on D: Chinese sprangletop (Chinese sprangletop) | M: velvetleaf, herbicidal effect rating (velvetleaf [12]) | herbicidal effect on J: blackgrass (criteria 0-5) (blackgrass [13]) | herbicidal effect on R: persian speedwell (criteria 0-5) (persian speedwell [14]) | herbicidal effect on O: lambsquarters (criteria 0-5) (lambsquarters [15]) | herbicidal effect on F: southern crabgrass (criteria 0-5) (southern crabgrass [16]) | L: windgrass, herbicidal effect rating (windgrass [17]) | K: Italian ryegrass, herbicidal effect rating (Italian ryegrass [18]) | further results |
| --- | --- | --- | --- | --- | --- | --- | --- | --- | --- | --- | --- | --- | --- | --- | --- | --- | --- | --- | --- | --- | --- |
| COc1cc(F)ccc1-c1sc2ccc(C(C)=O)cc2c1-c1c(O)c(C)nn(C)c1=O [2-192] | 3 (Herbicidal rate of 40% or more and less than 70%) | 2 (Herbicidal rate of 20% or more and less than 40%) | 0 (Herbicidal rate of 5% or less (almost no effect)) | 0 (Herbicidal rate of 5% or less (almost no effect)) | 0 (Herbicidal rate of 5% or less (almost no effect)) | 0 (Herbicidal rate of 5% or less (almost no effect)) | 0 (Herbicidal rate of 5% or less (almost no effect)) | 4 (Herbicidal rate of 70% or more and less than 90%) | 1 (Herbicidal rate of 5% or more and less than 20%) | 2 (Herbicidal rate of 20% or more and less than 40%) | 3 (Herbicidal rate of 40% or more and less than 70%) | 4 (Herbicidal rate of 70% or more and less than 90%) | 2 (Herbicidal rate of 20% or more and less than 40%) | 0 (Herbicidal rate of 5% or less (almost no effect)) | 4 (Herbicidal rate of 70% or more and less than 90%) | 5 (Herbicidal rate of 90% or more (almost completely withered)) | 3 (Herbicidal rate of 40% or more and less than 70%) | 4 (Herbicidal rate of 70% or more and less than 90%) | 0 (Herbicidal rate of 5% or less (almost no effect)) | 0 (Herbicidal rate of 5% or less (almost no effect)) | R: persian speedwell, herbicidal effect rating (persian speedwell [19]): 0 (Herbicidal rate of 5% or less (almost no effect)); P: chickweed, herbicidal effect rating (chickweed [20]): 0 (Herbicidal rate of 5% or less (almost no effect)); I: wild oat, herbicidal effect rating (wild oat [21]): 0 (Herbicidal rate of 5% or less (almost no effect)); herbicidal effect on P: chickweed (criteria 0-5) (chickweed [22]): 5 (Herbicidal rate of 90% or more (almost completely withered)); O: lambsquarters, herbicidal effect rating (lambsquarters [23]): 4 (Herbicidal rate of 70% or more and less than 90%); herbicidal effect on M: velvetleaf (criteria 0-5) (velvetleaf [24]): 4 (Herbicidal rate of 70% or more and less than 90%); herbicidal effect on G: green foxtail (criteria 0-5) (green foxtail [25]): 4 (Herbicidal rate of 70% or more and less than 90%) |
| CCCC(=O)Oc1c(C)nn(C)c(=O)c1-c1c(-c2ccccc2Cl)sc2ccc(F)cc12 [2-204] | 5 (Herbicidal rate of 90% or more (almost completely withered)) | 0 (Herbicidal rate of 5% or less (almost no effect)) | 3 (Herbicidal rate of 40% or more and less than 70%) | 3 (Herbicidal rate of 40% or more and less than 70%) | 3 (Herbicidal rate of 40% or more and less than 70%) | 0 (Herbicidal rate of 5% or less (almost no effect)) | 0 (Herbicidal rate of 5% or less (almost no effect)) | 2 (Herbicidal rate of 20% or more and less than 40%) | 0 (Herbicidal rate of 5% or less (almost no effect)) | 3 (Herbicidal rate of 40% or more and less than 70%) | 0 (Herbicidal rate of 5% or less (almost no effect)) | 4 (Herbicidal rate of 70% or more and less than 90%) | 3 (Herbicidal rate of 40% or more and less than 70%) | 0 (Herbicidal rate of 5% or less (almost no effect)) | 0 (Herbicidal rate of 5% or less (almost no effect)) | 5 (Herbicidal rate of 90% or more (almost completely withered)) | 3 (Herbicidal rate of 40% or more and less than 70%) | 0 (Herbicidal rate of 5% or less (almost no effect)) | 0 (Herbicidal rate of 5% or less (almost no effect)) | 0 (Herbicidal rate of 5% or less (almost no effect)) | R: persian speedwell, herbicidal effect rating (persian speedwell [19]): 3 (Herbicidal rate of 40% or more and less than 70%); P: chickweed, herbicidal effect rating (chickweed [20]): 3 (Herbicidal rate of 40% or more and less than 70%); I: wild oat, herbicidal effect rating (wild oat [21]): 0 (Herbicidal rate of 5% or less (almost no effect)); herbicidal effect on P: chickweed (criteria 0-5) (chickweed [22]): 5 (Herbicidal rate of 90% or more (almost completely withered)); O: lambsquarters, herbicidal effect rating (lambsquarters [23]): 0 (Herbicidal rate of 5% or less (almost no effect)); herbicidal effect on M: velvetleaf (criteria 0-5) (velvetleaf [24]): 4 (Herbicidal rate of 70% or more and less than 90%); herbicidal effect on G: green foxtail (criteria 0-5) (green foxtail [25]): 5 (Herbicidal rate of 90% or more (almost completely withered)) |
| CCCCOc1cccc(-c2sc3ccc(F)cc3c2-c2c(OC(=O)CCC)c(C)nn(C)c2=O)c1 [2-220] | 3 (Herbicidal rate of 40% or more and less than 70%) | 3 (Herbicidal rate of 40% or more and less than 70%) | 0 (Herbicidal rate of 5% or less (almost no effect)) | 0 (Herbicidal rate of 5% or less (almost no effect)) | 0 (Herbicidal rate of 5% or less (almost no effect)) | 0 (Herbicidal rate of 5% or less (almost no effect)) | 0 (Herbicidal rate of 5% or less (almost no effect)) | 4 (Herbicidal rate of 70% or more and less than 90%) | 1 (Herbicidal rate of 5% or more and less than 20%) | 3 (Herbicidal rate of 40% or more and less than 70%) | 0 (Herbicidal rate of 5% or less (almost no effect)) | 5 (Herbicidal rate of 90% or more (almost completely withered)) | 3 (Herbicidal rate of 40% or more and less than 70%) | 0 (Herbicidal rate of 5% or less (almost no effect)) | 0 (Herbicidal rate of 5% or less (almost no effect)) | 4 (Herbicidal rate of 70% or more and less than 90%) | 3 (Herbicidal rate of 40% or more and less than 70%) | 3 (Herbicidal rate of 40% or more and less than 70%) | 0 (Herbicidal rate of 5% or less (almost no effect)) | 0 (Herbicidal rate of 5% or less (almost no effect)) | R: persian speedwell, herbicidal effect rating (persian speedwell [19]): 0 (Herbicidal rate of 5% or less (almost no effect)); P: chickweed, herbicidal effect rating (chickweed [20]): 0 (Herbicidal rate of 5% or less (almost no effect)); I: wild oat, herbicidal effect rating (wild oat [21]): 0 (Herbicidal rate of 5% or less (almost no effect)); herbicidal effect on P: chickweed (criteria 0-5) (chickweed [22]): 4 (Herbicidal rate of 70% or more and less than 90%); O: lambsquarters, herbicidal effect rating (lambsquarters [23]): 0 (Herbicidal rate of 5% or less (almost no effect)); herbicidal effect on M: velvetleaf (criteria 0-5) (velvetleaf [24]): 1 (Herbicidal rate of 5% or more and less than 20%); herbicidal effect on G: green foxtail (criteria 0-5) (green foxtail [25]): 3 (Herbicidal rate of 40% or more and less than 70%) |
